Target: T1, human A2a receptor (Homo sapiens, UniProt P29274)
T1 construct: purchased Perkin-Elmer RBHA2AM400UA; host or cells: HEK293
Experiment: A2a receptor competition binding assay (Scintillation Proximity, tritiated radioligand)
Details: membranes from HEK293 cells expressing the human A2a receptor; 0.5 nM tritiated ligand; SPA beads; one hour at room temperature; read-out: A2a EC50
Method: Binding affinities of compounds of the invention for the human A2a receptor were determined in a competition binding assay using Scintillation Proximity technology. […] The beads were then allowed to settle to the bottom of the wells for 1 hr, after which the membrane-associated radioactivity was determined by scintillation counting in a TopCount microplate reader. Ki values were determined using the Cheng-Prusoff equation.
• HEK293 cells expressing the human, rat, dog or monkey adenosine 2a receptor (Purchased from Perkin-Elmer # RBHA2AM400UA). • The Tritiated compound was prepared in-house by MRL Radiochemistry according to published methods. • Wheatgerm agglutinin-coated yttrium silicate SPA beads (GE Healthcare #RPNQ0023). […] This is a 2.5× solution. The final concentration in the assay is 0.5 nM. Calculate the concentration by counting two 5 ul aliquots. Membrane Preparation • Use 0.25 ug of membrane/well. Dilute membranes to 9.7 ug/ml in assay buffer. Treat with 20 ug/ml adenosine deaminase (ADA) for 15 minutes at room temperature to degrade endogenous adenosine. Membrane-Bead Mixture • Use 100 ug/well wheatgerm agglutinin-coated yttrium silicate SPA beads. • Mix ADA-treated membranes and SPA beads together for 30 min prior to assay. […] Incubate for one hour at room temperature with agitation. • Include total binding (assay buffer+1% DMSO) and non-specific binding (CGS15943, 1 uM) wells. Counting • Allow the beads to settle for one hour. • Count in TopCount. Calculations • A curve fitting program (i.e., Prism, Activity Base, Chemcart) is used to determine the EC50.
The Ki value is calculated using the Cheng-Prusoff equation. Ki=EC50/(1+(radioligand concentration/Kd))

T1 sequence (P29274 whole entry): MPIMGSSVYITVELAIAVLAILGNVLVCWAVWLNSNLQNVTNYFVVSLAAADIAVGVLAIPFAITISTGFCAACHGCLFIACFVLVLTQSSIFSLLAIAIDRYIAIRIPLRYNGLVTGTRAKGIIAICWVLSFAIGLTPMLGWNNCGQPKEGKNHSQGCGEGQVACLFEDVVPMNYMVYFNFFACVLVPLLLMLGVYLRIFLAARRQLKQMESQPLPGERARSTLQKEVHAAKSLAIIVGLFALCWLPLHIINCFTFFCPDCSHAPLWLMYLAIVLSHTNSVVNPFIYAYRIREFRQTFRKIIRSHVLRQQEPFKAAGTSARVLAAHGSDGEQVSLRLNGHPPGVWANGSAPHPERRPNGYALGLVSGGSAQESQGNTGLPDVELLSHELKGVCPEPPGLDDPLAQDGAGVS

SMILES | EC50 [nM]
COc1cccc2c1nc(N)n1nc(CN3CCN(c4cc(F)cc(Cl)c4)CC3C)nc21 (centres unmarked) [Ex-101] | 4.95
COc1cccc2c1nc(N)n1nc(CN3CCN(c4ccc(F)c(Cl)c4)CC3C)nc21 (centres unmarked) [Ex-102] | 2.14
COc1cccc2c1nc(N)n1nc(CN3CCN(c4cnccn4)CC3C)nc21 (centres unmarked) [Ex-113] | 27.3
COc1cc(N2CCN(Cc3nc4c5cccc(OC)c5nc(N)n4n3)C(C)C2)ccc1F (centres unmarked) [Ex-115] | 1.39
COc1cccc2c1nc(N)n1nc(CN3CCN(c4ccc(C(F)(F)F)c(C(F)(F)F)c4)CC3C)nc21 (centres unmarked) [Ex-117] | 12.7
COc1ccc(N2CCN(Cc3nc4c5cccc(OC)c5nc(N)n4n3)C(C)C2)cc1C(F)(F)F (centres unmarked) [Ex-118] | 1.25
COc1cccc2c1nc(N)n1nc(CN3CCN(c4cc(C(F)(F)F)cc(C(F)(F)F)c4)CC3C)nc21 (centres unmarked) [Ex-120] | 20.7
COc1cccc2c1nc(N)n1nc(CN3CCN(c4ncc(F)cc4F)CC3C)nc21 (centres unmarked) [Ex-122] | 4.86
COc1cccc2c1nc(N)n1nc(CN3CCN(c4cc(C(F)F)ccn4)CC3C)nc21 (centres unmarked) [Ex-123] | 4.25
COc1cccc2c1nc(N)n1nc(CN3CCN(c4cccc(N(C)C)c4)CC3C)nc21 (centres unmarked) [Ex-126] | 2.39
COc1cccc2c1nc(N)n1nc(CN3CCN(c4ccc5c(c4)c(C)nn5C)CC3C)nc21 (centres unmarked) [Ex-128] | 0.964
COc1cccc2c1nc(N)n1nc(CN3CCN(c4ccc5c(cnn5C)c4)CC3C)nc21 (centres unmarked) [Ex-130] | 0.898
COc1cccc2c1nc(N)n1nc(CN3CCN(c4ccc5nn(C)cc5c4)CC3C)nc21 (centres unmarked) [Ex-131] | 0.698
COc1cc(OC)cc(N2CCN(Cc3nc4c5cccc(OC)c5nc(N)n4n3)C(C)C2)c1 (centres unmarked) [Ex-133] | 1.68
COc1cccc2c1nc(N)n1nc(CN3CCN(c4ccc(Cl)cn4)CC3C)nc21 (centres unmarked) [Ex-134] | 4.57
COc1cccc2c1nc(N)n1nc(CN3CCN(c4nccnc4C)CC3C)nc21 (centres unmarked) [Ex-135] | 10.7
COc1cccc2c1nc(N)n1nc(CN3CCN(c4ccc(F)c(C)n4)CC3C)nc21 (centres unmarked) [Ex-136] | 11.4
COc1cccc2c1nc(N)n1nc(CN3CCN(c4ccc(C)cn4)CC3C)nc21 (centres unmarked) [Ex-138] | 14.3

SMILES | EC50 [nM]
COc1cccc2c1nc(N)n1nc(CN3CCN(c4cc(C(F)(F)F)c(C(F)(F)F)cn4)CC3C)nc21 (centres unmarked) [Ex-139] | 81.8
COc1cccc2c1nc(N)n1nc(CN3CCN(c4cnn(CC(C)(C)C)c4)CC3C)nc21 (centres unmarked) [Ex-140] | 4.93
COCc1c2cc(N3CCN(Cc4nc5c6cccc(OC)c6nc(N)n5n4)C(C)C3)ccc2nn1C (centres unmarked) [Ex-141] | 2.34
COc1ccnc(N2CCN(Cc3nc4c5cccc(OC)c5nc(N)n4n3)C(C)C2)c1 (centres unmarked) [Ex-142] | 16.5
COc1cncc(N2CCN(Cc3nc4c5cccc(OC)c5nc(N)n4n3)C(C)C2)c1 (centres unmarked) [Ex-146] | 6.35
COc1cccc2c1nc(N)n1nc(C(=O)N3CCN(CC(F)(F)F)CC3C)nc21 (centres unmarked) [Ex-147] | 6.6
COc1cccc2c1nc(N)n1nc(CN3CCN(c4ncccc4C(F)(F)F)CC3C)nc21 (centres unmarked) [Ex-148] | 18
COc1cccc2c1nc(N)n1nc(CN3C(C)CN(c4ccc(F)cn4)CC3C)nc21 (centres unmarked) [Ex-150] | 15
COc1cccc2c1nc(N)n1nc(CN3CCN(c4ccc(OCC(F)F)cc4)CC3C)nc21 (centres unmarked) [Ex-151] | 2.22
COc1cccc2c1nc(N)n1nc(CN3CCN(c4ccc(OCC5CC5)cc4)CC3C)nc21 (centres unmarked) [Ex-152] | 2.2
COc1cccc2c1nc(N)n1nc(CC(=O)N3CCN(c4ccccn4)CC3)nc21 [Ex-153] | 7.3
C[C@@H]1CN(c2ccc(F)cc2)CCN1Cc1nc2c3cccc(Br)c3nc(N)n2n1 [Ex-157] | 14.4
COCCOc1ccc(N2CCN(Cc3nc4c5ccccc5nc(N)n4n3)CC2)cc1 [Ex-161] | 525
COCCOc1ccc(N2CCN(Cc3nc4c5cc(F)cc(F)c5nc(N)n4n3)CC2)cc1 [Ex-162] | 74.2
COc1cccc2c1nc(N)n1nc(CCN3CCN(c4ncc(F)cn4)CC3)nc21 [Ex-163] | 7.8
COc1cccc2c1nc(N)n1nc(CCN3CCN(c4ccccn4)CC3)nc21 [Ex-165] | 3.3
COc1cccc2c1nc(N)n1nc(CCN3CCN(c4ccccc4)CC3)nc21 [Ex-166] | 13.5

Further molecules by falling EC50, results first:

EC50 [nM] | SMILES
740 | C[C@@H]1CN(c2ccc(F)cc2)CCN1Cc1nc2c3cccc(C#N)c3nc(N)n2n1 [Ex-156]
343 | Cc1noc2cc(F)c(N3CCN(Cc4nc5c6ccccc6nc(N)n5n4)CC3)cc12 [Ex-160]
136 | C[C@@H]1CN(c2ccc(F)cc2)CCN1Cc1nc2c3cccc(C(F)(F)F)c3nc(N)n2n1 [Ex-155]
23.1 | COc1cccc2c1nc(N)n1nc(CN3CCN(c4ccncc4F)CC3C)nc21 (centres unmarked) [Ex-104]
20.6 | COc1cccc2c1nc(N)n1nc(CN3CCN(c4ccc(C#N)cn4)CC3C)nc21 (centres unmarked) [Ex-137]
20.1 | COc1cccc2c1nc(N)n1nc(CN3CCN(c4cnccc4C)CC3C)nc21 (centres unmarked) [Ex-144]
16.8 | COc1cc(N2CCN(Cc3nc4c5cccc(OC)c5nc(N)n4n3)C(C)C2)ccn1 (centres unmarked) [Ex-105]
13.9 | COc1cccc2c1nc(N)n1nc(CN3CCN(c4cccc(S(C)(=O)=O)c4)CC3C)nc21 (centres unmarked) [Ex-143]
13.4 | COc1cccc2c1nc(N)n1nc(CN3CCN(c4cc(F)cc(C(=O)O)c4)CC3C)nc21 (centres unmarked) [Ex-149]
13.2 | COc1ccc(Cl)c(N2CCN(Cc3nc4c5cccc(OC)c5nc(N)n4n3)C(C)C2)c1 (centres unmarked) [Ex-121]
12.3 | COc1cccc2c1nc(N)n1nc(CN3CCN(c4cc(C#N)ccn4)CC3C)nc21 (centres unmarked) [Ex-114]
11.6 | COc1cccc2c1nc(N)n1nc(CN3CCN(c4c(C)nn(C)c4C)CC3C)nc21 (centres unmarked) [Ex-129]
7.1 | COc1cccc2c1nc(N)n1nc(CCCN3CCN(c4ccccn4)CC3)nc21 [Ex-158]
6.98 | COc1cccc2c1nc(N)n1nc(CN3CCN(c4cc(F)ccn4)CC3C)nc21 (centres unmarked) [Ex-107]
5.56 | COc1cc(Cl)cc(N2CCN(Cc3nc4c5cccc(OC)c5nc(N)n4n3)C(C)C2)c1 (centres unmarked) [Ex-103]
4.73 | COc1cccc2c1nc(N)n1nc(CN3CCN(c4cc(F)cc(F)c4)CC3C)nc21 (centres unmarked) [Ex-106]
4.66 | COc1cccc2c1nc(N)n1nc(CN3CCN(c4nsnc4OCCO)CC3C)nc21 (centres unmarked) [Ex-109]
3.08 | COc1cccc2c1nc(N)n1nc(CN3CCN(c4ccc(Cl)c(Cl)c4)CC3C)nc21 (centres unmarked) [Ex-127]
3.03 | COc1cncc(N2CCN(Cc3nc4c5cccc(OC)c5nc(N)n4n3)C(C)C2)c1OC (centres unmarked) [Ex-116]
2.82 | COc1cccc2c1nc(N)n1nc(CN3CCN(c4cc(Cl)cc(Cl)c4)CC3C)nc21 (centres unmarked) [Ex-124]
2.6 | COc1cccc2c1nc(N)n1nc(CC(=O)N3CCN(c4ccc(F)cc4)C[C@H]3C)nc21 [Ex-154]
2.5 | COc1cccc2c1nc(N)n1nc(CCN3CCN(c4ccc(F)cn4)CC3)nc21 [Ex-164]
2.04 | COc1cccc2c1nc(N)n1nc(CN3CCN(c4cccc5nn(C)cc45)CC3C)nc21 (centres unmarked) [Ex-132]
1.97 | COc1cccc2c1nc(N)n1nc(CN3CCN(c4ccc(N5CCOCC5)cc4)CC3C)nc21 (centres unmarked) [Ex-119]
1.6 | COc1cccc2c1nc(N)n1nc(CN3CCN(c4cccc5c4cnn5C)CC3C)nc21 (centres unmarked) [Ex-112]
1.1 | COc1cccc2c1nc(N)n1nc(CN3CCN(c4ccc5nc(C6CC6)oc5c4)CC3C)nc21 (centres unmarked) [Ex-110]
1.03 | COc1cc(N2CCN(Cc3nc4c5cccc(OC)c5nc(N)n4n3)C(C)C2)ccc1Cl (centres unmarked) [Ex-125]

From US9676780B2, “Piperazine-substituted [1,2,4]triazolo[1,5-C]quinazolin-5-amine compounds with A2A antagonist properties” (MERCK SHARP & DOHME CORP., priority 2012, dated 2017)
